Values joined by “and” are separate entries in the source; they are usually repeats but may differ in a detail not shown here. Equal entries are not always repeated. Toxic doses and inconclusive results are not listed. The calls were made as follows: active = survival T/C of 150% or more; inactive = T/C below 125% in these data.
Test system: P388 leukemia ip, CD2F1 mice, survival T/C
Assay: NCI In Vivo Anticancer Drug Screen. Data for tumor model P388 Leukemia (intraperitoneal) in CD2F1 (CDF1) mice
Conditions: endpoint: median survival time, higher = longer survival
Procedure, shortened: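 Mice carrying the transplanted tumor received test compound or vehicle. Survival was recorded in each group, and the value is the treated-group measurement divided by that of the vehicle-treated control group.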

[1] = dose: 60.0 mg/kg/injection, schedule: Q01DX005 (ip), vehicle: saline with Tween-80
[2] = dose: 120.0 mg/kg/injection, schedule: Q01DX005 (ip), vehicle: saline with Tween-80
[3] = dose: 240.0 mg/kg/injection, schedule: Q01DX005 (ip), vehicle: saline with Tween-80
[4] = dose: 50.0 mg/kg/injection, schedule: Q01DX005 (ip), vehicle: saline with Tween-80
[5] = dose: 100.0 mg/kg/injection, schedule: Q01DX005 (ip), vehicle: saline with Tween-80
[6] = dose: 200.0 mg/kg/injection, schedule: Q01DX005 (ip), vehicle: saline with Tween-80
[7] = dose: 25.0 mg/kg/injection, schedule: Q04DX003 (ip), vehicle: saline
[8] = dose: 50.0 mg/kg/injection, schedule: Q01DX009 (ip), vehicle: saline
[9] = dose: 100.0 mg/kg/injection, schedule: Q01DX009 (ip), vehicle: saline
[10] = dose: 50.0 mg/kg/injection, schedule: Q01DX005 (ip), vehicle: Klucel (hydroxypropylcellulose) (HPC)
[11] = dose: 100.0 mg/kg/injection, schedule: Q01DX005 (ip), vehicle: Klucel (hydroxypropylcellulose) (HPC)
[12] = dose: 200.0 mg/kg/injection, schedule: Q01DX009 (ip), vehicle: saline
[13] = dose: 100.0 mg/kg/injection, schedule: Q01DX001 (ip), vehicle: saline with Tween-80
[14] = dose: 200.0 mg/kg/injection, schedule: Q01DX001 (ip), vehicle: saline with Tween-80
[15] = dose: 400.0 mg/kg/injection, schedule: Q01DX001 (ip), vehicle: saline with Tween-80
[16] = dose: 50.0 mg/kg/injection, schedule: Q01DX009 (ip), vehicle: Klucel (hydroxypropylcellulose) (HPC)
[17] = dose: 100.0 mg/kg/injection, schedule: Q01DX009 (ip), vehicle: Klucel (hydroxypropylcellulose) (HPC)

Measured: T/C

Nc1nnc2nc(CC(=O)c3cccc([N+](=O)[O-])c3)c(CC(=O)c3cccc([N+](=O)[O-])c3)nn12
inactive: [1] 96 % of control | [2] 100 % of control | [3] 100 % of control

c1ccc(P2(c3ccccc3)=NSN=S=N2)cc1
inactive: [4] 107 % of control | [5] 116 % of control | [6] 108 % of control

C[n+]1ccc2ccccc2c1C#N
inactive: dose: 12.5 mg/kg/injection, schedule: Q04DX003 (ip), vehicle: saline 106 % of control | [7] 98 % of control

CCC1(CC)OC(=O)C1Cl (stereo unspecified)
inactive: [4] 98 % of control | [5] 113 % of control | [6] 118 % of control

Clc1ncnc2c1ncn2C1CCCO1 (stereo unspecified)
inactive: [8] 110 % of control | [9] 115 % of control

CCC(C)C(NC(=O)C(C)NC(=O)OCc1ccccc1)C(=O)O (stereo unspecified)
inactive: [4] 101 % of control | [5] 101 % of control | [6] 100 % of control

COc1cc(C(=O)C(CN(C)C)CN(C)C)cc(OC)c1OC
inactive: dose: 12.5 mg/kg/injection, schedule: Q01DX005 (ip), vehicle: saline 101 % of control | dose: 25.0 mg/kg/injection, schedule: Q01DX005 (ip), vehicle: saline 100 % of control | dose: 50.0 mg/kg/injection, schedule: Q01DX005 (ip), vehicle: saline 107 % of control and 114 % of control

COc1cc(C2=[N+](C)CCc3cc4c(cc32)OCO4)cc(OC)c1OC
inactive: [10] 99 % of control | [11] 103 % of control

COc1cc([N+](=O)[O-])c(OC)cc1Nc1ccccc1C(=O)O
inactive: dose: 60.0 mg/kg/injection, schedule: Q01DX005 (ip), vehicle: Klucel + Tween-80 89 % of control | dose: 120.0 mg/kg/injection, schedule: Q01DX005 (ip), vehicle: Klucel + Tween-80 90 % of control

O=S(=O)(O)c1cc(O)c(O)c(S(=O)(=O)O)c1
inactive: [9] 101 % of control and 95 % of control | [12] 100 % of control and 94 % of control | dose: 400.0 mg/kg/injection, schedule: Q01DX009 (ip), vehicle: saline 100 % of control and 103 % of control | dose: 600.0 mg/kg/injection, schedule: Q01DX009 (ip), vehicle: saline 104 % of control and 90 % of control

Cc1nc(NN)nc(N)c1S(=O)(=O)Cc1ccc(Cl)cc1
inactive: dose: 100.0 mg/kg/injection, schedule: Q04DX002 (ip), vehicle: saline 94 % of control | dose: 200.0 mg/kg/injection, schedule: Q04DX002 (ip), vehicle: saline 90 % of control | dose: 400.0 mg/kg/injection, schedule: Q04DX002 (ip), vehicle: saline 90 % of control

COc1cc(OC)cc(C2(C(O)C3OC(C)(C)OC3C)SCCCS2)c1 (stereo unspecified)
inactive: dose: 100.0 mg/kg/injection, schedule: Q01DX001 (ip), vehicle: Klucel (hydroxypropylcellulose) (HPC) 103 % of control | dose: 200.0 mg/kg/injection, schedule: Q01DX001 (ip), vehicle: Klucel (hydroxypropylcellulose) (HPC) 99 % of control | dose: 400.0 mg/kg/injection, schedule: Q01DX001 (ip), vehicle: Klucel (hydroxypropylcellulose) (HPC) 97 % of control

COc1cc(O)c2c(c1O)C1(C)C(=O)CCCC1(O)CC2=O (stereo unspecified)
inactive: [13] 90 % of control | [14] 100 % of control | [15] 100 % of control

O=C(N/N=c1/sc2ccccc2n1Cc1ccccc1)c1ccncc1
inactive: dose: 6.25 mg/kg/injection, schedule: Q01DX009 (ip), vehicle: Klucel (hydroxypropylcellulose) (HPC) 106 % of control | dose: 12.5 mg/kg/injection, schedule: Q01DX009 (ip), vehicle: Klucel (hydroxypropylcellulose) (HPC) 100 % of control | dose: 25.0 mg/kg/injection, schedule: Q01DX009 (ip), vehicle: Klucel (hydroxypropylcellulose) (HPC) 89 % of control

C/C=C1/C[N+]2(C)CCC34c5ccccc5NC32C(O)CC1C4(CO)C(=O)OC (stereo unspecified)
inactive: dose: 2.0 mg/kg/injection, schedule: Q01DX009 (ip), vehicle: saline 109 % of control | dose: 4.0 mg/kg/injection, schedule: Q01DX009 (ip), vehicle: saline 106 % of control | dose: 8.0 mg/kg/injection, schedule: Q01DX009 (ip), vehicle: saline 100 % of control | dose: 16.0 mg/kg/injection, schedule: Q01DX009 (ip), vehicle: saline 106 % of control

c1ccc(C2=NC3CCCC[C@H]3O2)cc1 (stereo partly specified)
inactive: dose: 30.0 mg/kg/injection, schedule: Q01DX005 (ip), vehicle: saline with Tween-80 108 % of control | [1] 101 % of control and 96 % of control | [2] 105 % of control | [3] 100 % of control

Oc1ccc(O)c(/C=N/N=C/c2cc(O)ccc2O)c1
inactive: [10] 97 % of control | [11] 97 % of control | dose: 200.0 mg/kg/injection, schedule: Q01DX005 (ip), vehicle: Klucel (hydroxypropylcellulose) (HPC) 91 % of control

CCOC(=O)C1(O)CC(O)C(O)C(O)C1OC (stereo unspecified)
inactive: [13] 94 % of control | [14] 92 % of control | [15] 94 % of control

CCn1c(=S)[nH]c2sc3c(c2c1=O)CCCCC3
inactive: [2] 89 % of control | [3] 101 % of control

CCCCNC(=O)NS(=O)(=O)c1ccc(N)cc1
inactive: dose: 50.0 mg/kg/injection, schedule: Q01DX009 (ip), vehicle: saline with Tween-80 100 % of control | dose: 100.0 mg/kg/injection, schedule: Q01DX009 (ip), vehicle: saline with Tween-80 105 % of control | dose: 200.0 mg/kg/injection, schedule: Q01DX009 (ip), vehicle: saline with Tween-80 102 % of control

COc1cc(CC2COC(=O)C2(O)Cc2ccc(O)c(OC)c2)ccc1O (stereo unspecified)
inactive: [4] 98 % of control | [5] 95 % of control | [6] 100 % of control

CS(=O)(=O)NC(=O)CCC(=O)Nc1ccc(Cl)cc1
inactive: [13] 100 % of control | [14] 97 % of control | [15] 96 % of control

CCCCN(CCCC)C1/C(=N\O)C2CC1C1CC=CC21 (stereo unspecified)
inactive: dose: 60.0 mg/kg/injection, schedule: Q01DX005 (ip), vehicle: saline + Tween-80 + alcohol 95 % of control | dose: 120.0 mg/kg/injection, schedule: Q01DX005 (ip), vehicle: saline + Tween-80 + alcohol 94 % of control | dose: 240.0 mg/kg/injection, schedule: Q01DX005 (ip), vehicle: saline + Tween-80 + alcohol 94 % of control

C=CCNC(=S)NCCN(CCO)C(=S)NCC=C
inactive: dose: 12.5 mg/kg/injection, schedule: Q01DX009 (ip), vehicle: saline 105 % of control | dose: 25.0 mg/kg/injection, schedule: Q01DX009 (ip), vehicle: saline 104 % of control | [8] 104 % of control and 93 % of control | [12] 98 % of control

O=C(NC(CO)C(=O)O)OCc1ccccc1 (stereo unspecified)
inactive: [16] 94 % of control | [17] 99 % of control | dose: 200.0 mg/kg/injection, schedule: Q01DX009 (ip), vehicle: Klucel (hydroxypropylcellulose) (HPC) 89 % of control

CC1(C)N=C(N)N=C(N)N1c1cccc(CCCCc2ccc(S(=O)(=O)F)cc2)c1
inactive: [7] 110 % of control

[NH-]C(CO)C(=O)O.[NH-]C(CO)C(=O)O.[Pt+2] (stereo unspecified)
inactive: dose: 3.13 mg/kg/injection, schedule: Q01DX009 (ip), vehicle: water 91 % of control | dose: 6.25 mg/kg/injection, schedule: Q01DX009 (ip), vehicle: water 91 % of control | dose: 12.5 mg/kg/injection, schedule: Q01DX009 (ip), vehicle: water 97 % of control | dose: 25.0 mg/kg/injection, schedule: Q01DX009 (ip), vehicle: water 106 % of control | dose: 50.0 mg/kg/injection, schedule: Q01DX009 (ip), vehicle: water 115 % of control | dose: 100.0 mg/kg/injection, schedule: Q01DX009 (ip), vehicle: water 115 % of control

Cc1cc(NC(=S)SCc2ccc(F)cc2)ccc1Br
inactive: [16] 112 % of control and 122 % of control | dose: 50.0 mg/kg/injection, schedule: Q01DX009 (ip), vehicle: suspension in saline 93 % of control | [17] 114 % of control and 115 % of control | dose: 100.0 mg/kg/injection, schedule: Q01DX009 (ip), vehicle: suspension in saline 94 % of control | dose: 200.0 mg/kg/injection, schedule: Q01DX009 (ip), vehicle: suspension in saline 109 % of control
